Consider 1 substance from patent publication US20200215099A1, “NON-ANTICOAGULANT SULFATED OR SULFONATED POLYSACCHARIDES” (Baxalta Incorporated, priority 2012, published 2020).

Series [1] has as its system FVIII-inhibited plasma. In words: Thrombin generation assay (CAT) in FVIII-inhibited plasma. It is filed as biochemical, human. Here is the method:
The procoagulant activity of the sulfated polysaccharides was assessed by the Thrombin Generation Assay (TGA). The influence of each sulfated polysaccharide on thrombin generation was measured in duplicate via CAT in a Fluoroskan Ascent® reader (Thermo Labsystems, Helsinki, Finland; filters 390 nm excitation and 460 nm emission) following the slow cleavage of the fluorogenic substrate Z-Gly-GIy-Arg-AMC (Hemker H C. Pathophysiol Haemost Thromb (2003) 33(4):15). To each well of a 96 well microplate (Immulon 2HB, clear U-bottom; Thermo Electron) 80 μL of pre-warmed (37° C.) goat anti FVIII antibody treated human normal plasma pool was added. For triggering thrombin generation by tissue factor, 104 of PPP reagent containing a certain amount of recombinant human tissue factor (rTF) and phospholipid vesicles composed of phosphatidylserine, phosphatidylcholine and phosphatidylethanolamine (final concentration of 4 μM) (Thrombinoscope BV, Maastricht, The Netherlands) was added. For studying the procoagulant activity of sulfated polymers a final TF concentration of 1 pM was used to provide FVIII and TFPI sensitivity of the test system. Just prior to putting the plate into the pre-warmed (37° C.) reader, 10 µL of test or reference sample or calibrator compound was added. Thrombin generation was started by dispensing 204 of FluCa reagent (Thrombinoscope BV, Maastricht, The Netherlands) containing fluorogenic substrate and Hepes buffered CaCl2 (100 mM) into each well and fluorescence intensity was recorded at 37° C.
The parameters of the resulting thrombin generation curves were calculated using the Thrombinoscope™ software (Thrombinoscope BV, Maastricht, The Netherlands) and thrombin calibrator to correct for inner filter and substrate consumption effects (Hemker H C, Pathophysiol Haemost Thromb (2003) 33(4):15). With the thrombin calibrator as a reference, the molar concentration of thrombin in the test wells was calculated by the software. The thrombin amounts at the peak and peak times of each thrombin generation curve (peak thrombin, nM) were plotted against sulfated polysaccharide concentrations resulting in the procoagulant profile of these compounds. The thrombin generation assay results are illustrated in the figures appended hereto. From these plots half maximal effective concentrations (EC50) values are determined using a sigmoidal curve fit. The EC50 represents the concentration at which the half maximal thrombin peak is reached.

Series [2] has as its system normal human plasma. In words: Activated partial thromboplastin time assay (aPTT). It is filed as biochemical. Conditions: 50% increase clotting time / CAT EC50. Here is the method:
The aPTT assay was performed to study anticoagulant activities of NASP. In brief, 50 μL of thawed normal human plasma pool (George King Biomedical, Overland Park, Kans.) was mixed with 5 μL of NASP sample (0-60 μg/mL final plasma concentration). NASPs were diluted in imidazole buffer (3.4 g/L imidazole; 5.85 g/L NaCl, pH 7.4) containing 1% albumin (Baxter, Austria). After addition of 50 μL aPTT reagent (STA APTT, Roche) the samples were incubated for 4 min at 37° C. Clotting was initiated by 50 μL of 25 mM CaCl2 solution (Baxter, Austria) and recorded for up to 5 min. All pipetting steps and clotting time measurements were carried out with an ACL Pro Elite (Instrumentation Laboratory, Bedford, Mass.) instrument. Samples were run in duplicate.
For data analysis, clotting time is plotted against the NASP concentration. Concentrations where the clotting time is 50% increased over the normal plasma control are determined using a linear curve fit.

Series [3] in a line: Pharmacokinetics after intravenous administration. It is filed as in vivo, CD rats. The method, then:
The preparations were either unfractionated (average MW of 63 kD) or fractionated by a filter method (lots A and B with an average MW of 12 and 14 kD, respectively). The substances were prepared in a physiological saline solution and injected at 5 mL/kg. Each group consisted of three animals. Blood sample were collected in the presence of citrate (ratio 1:9) before dosing and 5, 30 min, 1, 3, 6, and 10 h after the dosing. Platelet-poor plasma was prepared by two centrifugation steps at 3000 rpm. The plasma samples were analyzed for by a liquid-chromatography-mass spectroscopy, a substance-specific method for S-6-CI.

A word on the EC50: it is the concentration giving half of the maximal effect. A higher EC50 goes with lower potency in that assay. By half-life is commonly meant the time in which the quantity being followed falls by half. On to sulfated 6-carboxy-icodextrin, for which the “procoagulant activity (in words)” value in series [1] is listed as “good procoagulant activity in CAT assays at very low concentrations”. Also, in series [1] (37° C., 1 pM hTF, 4 μM PL), the “procoagulant at (concentration)” value is “about 0.01 μg/mL”. The EC50 in series [1] (half maximal thrombin peak, 1 pM hTF, 4 μM PL) worked out at 0.07 µg/mL. For the same substance, in series [2], the “Ratio aPTT/CAT” value is “very good”. For the same substance, the “in vivo recovery (plasma concentration)” value in series [3] (5 min after i.v. dosing of 5 mg/kg) was in the range of 28 to 44 µg/mL. Besides, in series [3] (i.v. 5 mg/kg, estimated from early time points), the half-life was 30 to 45 min.
